Reference: ChEMBL document CHEMBL5154649, “Design, synthesis, and characterization of novel aminoalcohol quinolines with strong in vitro antimalarial activity” (Eur J Med Chem, 2022)
The source made the active and inactive calls. No cut-off for these calls is given here.

Key:
Plasmodium falciparum [1] = assay: Antiplasmodial activity against CQ-resistant Plasmodium falciparum W2 assessed as inhibition of parasite growth measured after 48 hrs by SYBR Green 1 dye based fluorescence assay; type: functional, organism-based; conditions: W2, 48 h
[2] = Apparent permeability across apical to basolateral side in human Caco-2/TC7 cells at 20 uM incubated for 2 hrs by LC-MS/MS analysis; type: ADME, cell-based, Caco2/TC7
[3] = Apparent permeability across apical to basolateral side in human Caco-2/TC7 cells assessed as drug recovery at 20 uM incubated for 2 hrs by LC-MS/MS analysis; type: ADME, cell-based, Caco2/TC7; conditions: read-out: Drug recovery
[4] = Metabolic stability in mouse liver microsomes assessed as intrinsic clearance at 0.5 uM incubated for 30 mins by LC-MS/MS analysis; type: ADME, Microsome; conditions: read-out: CLH
[5] = Metabolic stability in rat liver microsomes assessed as intrinsic clearance at 0.5 uM incubated for 30 mins by LC-MS/MS analysis; type: ADME, Microsome; conditions: read-out: CLH
[6] = Metabolic stability in human liver microsomes assessed as intrinsic clearance at 0.5 uM incubated for 30 mins by LC-MS/MS analysis; type: ADME, Microsome; conditions: read-out: CLH
[7] = Metabolic stability in human hepatocytes assessed as intrinsic clearance incubated up to 24 hrs measured per 10^6 cells by LC-MS/MS analysis; type: ADME, cell-based, Hepatocyte
Plasmodium falciparum [8] = assay: Antiplasmodial activity against CQ-susceptible Plasmodium falciparum 3D7 infected in human erythrocytes assessed as inhibition of parasite growth measured after 72 hrs by HRP2-ELISA; type: functional, organism-based; conditions: 3D7, Erythrocyte
Plasmodium falciparum [9] = assay: Antiplasmodial activity CQ-resistant Plasmodium falciparum W2 infected in human erythrocytes assessed as inhibition of parasite growth measured after 72 hrs by HRP2-ELISA; type: functional, organism-based; conditions: W2, Erythrocyte
Plasmodium falciparum [10] = assay: Antiplasmodial activity against CQ-susceptible Plasmodium falciparum 3D7 assessed as inhibition of parasite growth measured after 48 hrs by SYBR Green 1 dye based fluorescence assay; type: functional, organism-based; conditions: 3D7, 48 h
Plasmodium falciparum [11] = assay: Selectivity index, ratio of IC50 for antiplasmodial activity against CQ-susceptible Plasmodium falciparum 3D7 to IC50 for antiplasmodial activity against CQ-resistant Plasmodium falciparum W2 by SYBR Green 1 dye based fluorescence assay; type: functional
[12] = Cytotoxicity against human HepG2 cells assessed as reduction in cell viability incubated for 72 hrs by MTT assay; type: toxicity, cell-based
[13] = Cytotoxicity against Chinese hamster CHO cells assessed as reduction in cell viability incubated for 24 hrs by MTT assay; type: toxicity, cell-based, Cricetulus griseus
[14] = Cytotoxicity against human THP-1 cells assessed as reduction in cell viability incubated for 72 hrs by MTT assay; type: toxicity, cell-based
[15] = Cytotoxicity against human HFF cells assessed as reduction in cell viability incubated for 72 hrs by MTT assay; type: toxicity, cell-based
[16] = Selectivity index, ratio of IC50 for cytotoxicity against human HepG2 cells to IC50 for antiplasmodial activity against CQ-susceptible Plasmodium falciparum 3D7 by SYBR Green 1 dye based fluorescence assay; type: toxicity, cell-based; conditions: HepG2 cells versus CQ-susceptible Plasmodium falciparum 3D7, read-out: Ratio IC50
[17] = Selectivity index, ratio of IC50 for cytotoxicity against chinese hamster CHO cells to IC50 for antiplasmodial activity against CQ-susceptible Plasmodium falciparum 3D7 by SYBR Green 1 dye based fluorescence assay; type: toxicity, cell-based; conditions: CHO cells versus CQ-susceptible Plasmodium falciparum 3D7, read-out: Ratio IC50
[18] = Selectivity index, ratio of IC50 for cytotoxicity against human THP-1 cells to IC50 for antiplasmodial activity against CQ-susceptible Plasmodium falciparum 3D7 by SYBR Green 1 dye based fluorescence assay; type: toxicity, cell-based; conditions: THP-1 cells versus CQ-susceptible Plasmodium falciparum 3D7, read-out: Ratio IC50
[19] = Selectivity index, ratio of IC50 for cytotoxicity against human HFF cells to IC50 for antiplasmodial activity against CQ-susceptible Plasmodium falciparum 3D7 by SYBR Green 1 dye based fluorescence assay; type: toxicity, cell-based; conditions: HFF cells versus CQ-susceptible Plasmodium falciparum 3D7, read-out: Ratio IC50
Plasmodium berghei [20] = assay: Antimalarial activity against Plasmodium berghei ANKA infected in BALB/c mouse assessed as time required for clearance of blood parasites at 9 mg/kg, ip administered daily for 5 days; type: functional; conditions: time 5 day
[21] = target: Voltage-gated inwardly rectifying potassium channel KCNH2 (Homo sapiens, UniProt Q12809); assay: Inhibition of hERG channel expressed in CHO cells at holding potential of -80 mV by whole cell patch clamp method; type: toxicity, cell-based
Chain of Voltage-gated inwardly rectifying potassium channel KCNH2 (Q12809 whole entry): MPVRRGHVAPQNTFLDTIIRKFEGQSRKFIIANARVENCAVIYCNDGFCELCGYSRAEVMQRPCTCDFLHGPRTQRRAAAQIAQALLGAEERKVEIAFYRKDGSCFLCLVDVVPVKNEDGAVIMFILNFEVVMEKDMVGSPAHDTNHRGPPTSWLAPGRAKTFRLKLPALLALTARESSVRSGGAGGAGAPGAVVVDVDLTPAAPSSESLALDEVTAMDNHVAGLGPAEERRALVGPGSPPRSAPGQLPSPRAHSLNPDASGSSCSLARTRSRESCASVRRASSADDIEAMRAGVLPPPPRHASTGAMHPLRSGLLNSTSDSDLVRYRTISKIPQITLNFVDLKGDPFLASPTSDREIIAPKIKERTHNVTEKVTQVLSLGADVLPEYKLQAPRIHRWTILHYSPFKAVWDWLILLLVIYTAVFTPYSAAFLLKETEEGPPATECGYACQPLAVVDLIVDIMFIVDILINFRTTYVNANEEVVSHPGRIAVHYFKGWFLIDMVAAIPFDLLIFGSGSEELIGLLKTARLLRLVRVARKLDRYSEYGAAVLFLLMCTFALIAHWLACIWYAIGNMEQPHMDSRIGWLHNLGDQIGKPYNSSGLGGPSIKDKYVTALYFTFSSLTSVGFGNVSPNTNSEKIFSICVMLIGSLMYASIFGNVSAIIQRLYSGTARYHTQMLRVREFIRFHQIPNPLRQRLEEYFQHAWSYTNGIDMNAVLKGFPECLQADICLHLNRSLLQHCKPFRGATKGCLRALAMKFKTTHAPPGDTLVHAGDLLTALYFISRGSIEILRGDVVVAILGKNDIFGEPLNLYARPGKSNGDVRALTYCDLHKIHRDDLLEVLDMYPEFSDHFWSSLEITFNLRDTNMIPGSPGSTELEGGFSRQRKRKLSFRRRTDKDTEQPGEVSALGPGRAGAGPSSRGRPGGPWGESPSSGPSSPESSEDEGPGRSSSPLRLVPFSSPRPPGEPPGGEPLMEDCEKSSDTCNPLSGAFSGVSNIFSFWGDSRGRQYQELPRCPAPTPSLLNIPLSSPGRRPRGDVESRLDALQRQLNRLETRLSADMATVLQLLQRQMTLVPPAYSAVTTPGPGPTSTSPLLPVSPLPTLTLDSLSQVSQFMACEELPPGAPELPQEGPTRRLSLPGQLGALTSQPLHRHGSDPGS

[22] = Selectivity index, ratio of IC50 for cytotoxicity against human HepG2 cells to IC50 for antiplasmodial activity against Plasmodium falciparum 3D7 infected in human erythrocytes by HRP2-ELISA; type: toxicity, cell-based; conditions: read-out: Ratio IC50
[23] = Selectivity index, ratio of IC50 for cytotoxicity against chinese hamster CHO cells to IC50 for antiplasmodial activity against Plasmodium falciparum 3D7 infected in human erythrocytes by HRP2-ELISA; type: toxicity, cell-based; conditions: read-out: Ratio IC50
[24] = Selectivity index, ratio of IC50 for cytotoxicity against human THP-1 cells to IC50 for antiplasmodial activity against Plasmodium falciparum 3D7 infected in human erythrocytes by HRP2-ELISA; type: toxicity, cell-based; conditions: read-out: Ratio IC50
[25] = Selectivity index, ratio of IC50 for human HFF cells to IC50 for antiplasmodial activity against Plasmodium falciparum 3D7 infected in human erythrocytes by HRP2-ELISA; type: toxicity, cell-based; conditions: read-out: Ratio IC50
Cytochrome P450 3A4 [26] = target: T1, Cytochrome P450 3A4 (Homo sapiens, UniProt P08684); assay: Inhibition of CYP3A4 in human liver microsomes assessed as reduction in 1'-hydroxy midazolam formation using midazolam as substrate preincubated for 20 mins in presence of NADPH followed by incubation with substrate for 10 mins by LC-MS/MS analysis; type: ADME, Microsome
T1 sequence (P08684 whole entry): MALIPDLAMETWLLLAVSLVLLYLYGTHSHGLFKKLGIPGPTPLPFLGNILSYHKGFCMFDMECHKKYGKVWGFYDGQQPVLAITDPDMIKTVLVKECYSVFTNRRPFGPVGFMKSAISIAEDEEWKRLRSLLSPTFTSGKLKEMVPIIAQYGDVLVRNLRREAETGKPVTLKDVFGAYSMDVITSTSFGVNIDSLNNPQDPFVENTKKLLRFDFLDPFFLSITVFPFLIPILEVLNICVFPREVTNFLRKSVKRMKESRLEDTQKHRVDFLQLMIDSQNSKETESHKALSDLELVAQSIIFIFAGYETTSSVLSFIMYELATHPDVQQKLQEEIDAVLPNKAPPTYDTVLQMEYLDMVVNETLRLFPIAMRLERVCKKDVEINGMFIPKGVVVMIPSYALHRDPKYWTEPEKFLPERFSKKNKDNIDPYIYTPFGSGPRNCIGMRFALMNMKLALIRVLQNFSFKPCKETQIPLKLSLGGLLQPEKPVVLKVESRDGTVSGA

Cytochrome P450 3A4 [27] = target: T1, Cytochrome P450 3A4; assay: Inhibition of CYP3A4 in human liver microsomes assessed as reduction in 6-beta-hydroxy-testosterone formation using testosterone as substrate preincubated for 20 mins in presence of NADPH followed by incubation with substrate for 10 mins by LC-MS/MS analysis; type: ADME, Microsome
Plasmodium falciparum [28] = assay: Selectivity index, ratio of IC50 for antiplasmodial activity against CQ-susceptible Plasmodium falciparum 3D7 to IC50 for antiplasmodial activity CQ-resistant Plasmodium falciparum W2 by HRP2-ELISA; type: functional
[29] = Genotoxicity in CHO-K1 cells at 0.001 to 1 mM incubated for 3 hrs in presence of S9 mix by in vitro micronucleus test; type: toxicity, cell-based, Cricetulus griseus; conditions: chinese hamster, cho-k1, 3 h, 1000 µM, dose 0.001-1 mM
[30] = Genotoxicity in CHO-K1 cells at 0.001 to 1 mM incubated for 24 hrs without metabolic activation by in vitro micronucleus test; type: toxicity, cell-based, Cricetulus griseus; conditions: chinese hamster, cho-k1, 24 h, 1000 µM, dose 0.001-1 mM
[31] = Drug metabolism in mouse liver microsomes assessed as (S)-2-(((S)-2-(2,8-Bis(trifluoromethyl)quinolin-4-yl)-2-hydroxyethyl)amino)-3-phenylpropan-1-ol metabolite formation measured after 5 mins by LC-MS analysis; type: ADME, Microsome
[32] = Drug metabolism in mouse liver microsomes assessed as (1S)-2-amino-1-[2,8-bis(trifluoromethyl)quinolin-4-yl]ethan-1-ol metabolite formation measured after 5 mins by LC-MS analysis; type: ADME, Microsome
[33] = Drug metabolism in rat liver microsomes assessed as oxidative metabolite formation measured after 5 mins by LC-MS analysis; type: ADME, Microsome
[34] = Drug metabolism in human liver microsomes assessed as oxidative metabolite formation measured after 5 mins by LC-MS analysis; type: ADME, Microsome
Cytochrome P450 3A4 [35] = target: T1, Cytochrome P450 3A4; assay: Inhibition of CYP3A4 in human liver microsomes assessed as reduction in 1'-hydroxy midazolam formation using midazolam as substrate preincubated for 20 mins in absence of NADPH followed by incubation with substrate for 10 mins by LC-MS/MS analysis; type: ADME, Microsome
Cytochrome P450 3A4 [36] = target: T1, Cytochrome P450 3A4; assay: Inhibition of CYP3A4 in human liver microsomes assessed as reduction in 6-beta-hydroxy-testosterone formation using testosterone as substrate preincubated for 20 mins in absence of NADPH followed by incubation with substrate for 10 mins by LC-MS/MS analysis; type: ADME, Microsome
Plasmodium berghei [37] = assay: Antimalarial activity against Plasmodium berghei ANKA infected in BALB/c mouse assessed as increase in animal survival rate at 9 mg/kg, ip administered daily for 5 days and measured for 30 days; type: functional, organism-based; conditions: time 30.0 day

O[C@@H](c1cc(C(F)(F)F)nc2c(C(F)(F)F)cccc12)[C@H]1CCCCN1 [(S,R)-MEFLOQUINE]
IC50 (Plasmodium falciparum [1]): 0.0318 µM
Papp A→B at 2 h, 20 µM [2]: 4.5 ×10⁻⁶ cm/s
recovery at 2 h, 20 µM [3]: 91%
microsomal CLint at 0.5 µM [4]: < 20 µL/min/mg
microsomal CLint at 0.5 µM [5]: < 20 µL/min/mg
microsomal CLint at 0.5 µM [6]: < 20 µL/min/mg
CLH [7]: 0.002 mL/h
IC50 (Plasmodium falciparum [8]): 0.0541 µM
IC50 (Plasmodium falciparum [9]): 0.0283 µM

O[C@H](c1cc(C(F)(F)F)nc2c(C(F)(F)F)cccc12)[C@@H]1CCCCN1 [(R,S)-MEFLOQUINE]
Papp A→B at 2 h, 20 µM [2]: 4.5 ×10⁻⁶ cm/s
recovery at 2 h, 20 µM [3]: 85%
microsomal CLint at 0.5 µM [4]: < 20 µL/min/mg
microsomal CLint at 0.5 µM [5]: < 20 µL/min/mg
microsomal CLint at 0.5 µM [6]: < 20 µL/min/mg
CLH [7]: 0.004 mL/h

O[C@@H](CNCCN1CCN(C(c2ccccc2)c2ccccc2)CC1)c1cc(C(F)(F)F)nc2c(C(F)(F)F)cccc12
IC50 (Plasmodium falciparum [10]): 0.0451 µM
IC50 (Plasmodium falciparum [1]): 0.0765 µM
Ratio IC50 (Plasmodium falciparum [11]): 0.6
IC50 at 72 h [12]: 3.3 µM
IC50 at 24 h [13]: 10.2 µM
IC50 at 72 h [14]: 7.6 µM
IC50 at 72 h [15]: 13.9 µM
selectivity ratio [16]: 73
selectivity ratio [17]: 226
selectivity ratio [18]: 168
selectivity ratio [19]: 308

Cl.O[C@@H](c1cc(C(F)(F)F)nc2c(C(F)(F)F)cccc12)[C@H]1CCCCN1 (relative stereo)
Time (Plasmodium berghei [20]): <100 h

CCCCCNC[C@@H](O)c1cc(C(F)(F)F)nc2c(C(F)(F)F)cccc12
Papp A→B at 2 h, 20 µM [2]: 11.4 ×10⁻⁶ cm/s
recovery at 2 h, 20 µM [3]: 99%
IC50 [21]: 8.8 µM

CCCCCCCNC[C@@H](O)c1cc(C(F)(F)F)nc2c(C(F)(F)F)cccc12
Papp A→B at 2 h, 20 µM [2]: 5.3 ×10⁻⁶ cm/s
recovery at 2 h, 20 µM [3]: 65%
IC50 [21]: 7 µM

COC[C@H](Cc1ccccc1)NC[C@@H](O)c1cc(C(F)(F)F)nc2c(C(F)(F)F)cccc12
IC50 (Plasmodium falciparum [10]): 0.0151 µM
IC50 (Plasmodium falciparum [1]): 0.0132 µM
Ratio IC50 (Plasmodium falciparum [11]): 1.1
IC50 at 72 h [12]: 11.6 µM
IC50 at 24 h [13]: 47.3 µM
IC50 at 72 h [14]: 16.2 µM
IC50 at 72 h [15]: 44.2 µM
selectivity ratio [22]: 778
selectivity ratio [23]: 3170
selectivity ratio [24]: 1090
selectivity ratio [25]: 2970
Papp A→B at 2 h, 20 µM [2]: 6.1 ×10⁻⁶ cm/s
recovery at 2 h, 20 µM [3]: 81%
IC50 [21]: 17.3 µM
microsomal CLint at 0.5 µM [4]: > 1000 µL/min/mg
microsomal CLint at 0.5 µM [5]: > 1000 µL/min/mg
microsomal CLint at 0.5 µM [6]: > 1000 µL/min/mg
IC50 (Cytochrome P450 3A4 [26]): 5.9 µM
IC50 (Cytochrome P450 3A4 [27]): 2.3 µM
IC50 (Plasmodium falciparum [8]): 0.0149 µM
IC50 (Plasmodium falciparum [9]): 0.011 µM
Ratio IC50 (Plasmodium falciparum [28]): 1.35
Activity [29]: Non-Toxic
Activity [30]: Non-Toxic
Drug metabolism [31]: Metabolite_Detected
Drug metabolism [32]: Metabolite_Detected
Drug metabolism [33]: Metabolite_Detected
Drug metabolism [34]: Metabolite_Detected
IC50 (Cytochrome P450 3A4 [35]): 2.8 µM
IC50 (Cytochrome P450 3A4 [36]): 2.9 µM

CCCCCCCNC[C@H](O)c1cc(C(F)(F)F)nc2c(C(F)(F)F)cccc12
Papp A→B at 2 h, 20 µM [2]: 0.5 ×10⁻⁶ cm/s
recovery at 2 h, 20 µM [3]: 90%
IC50 [21]: > 30 µM

O[C@@H](c1cc(C(F)(F)F)nc2c(C(F)(F)F)cccc12)[C@H]1CCCCN1 (relative stereo)
Activity (Plasmodium berghei [37]): Active

CCCCCNC[C@H](O)c1cc(C(F)(F)F)nc2c(C(F)(F)F)cccc12
Papp A→B at 2 h, 20 µM [2]: 3.7 ×10⁻⁶ cm/s
recovery at 2 h, 20 µM [3]: 86%
IC50 [21]: 5.6 µM

O[C@@H](CNCCNC(c1ccccc1)c1ccccc1)c1cc(C(F)(F)F)nc2c(C(F)(F)F)cccc12
IC50 (Plasmodium falciparum [10]): 0.0358 µM
IC50 (Plasmodium falciparum [1]): 0.034 µM
Ratio IC50 (Plasmodium falciparum [11]): 1.05
IC50 at 72 h [12]: 8.8 µM
IC50 at 24 h [13]: 11.6 µM
IC50 at 72 h [14]: 5 µM
IC50 at 72 h [15]: 43.9 µM
selectivity ratio [22]: 177
selectivity ratio [23]: 233
selectivity ratio [24]: 100
selectivity ratio [25]: 881
IC50 (Plasmodium falciparum [8]): 0.0498 µM
IC50 (Plasmodium falciparum [9]): 0.0207 µM
Ratio IC50 (Plasmodium falciparum [28]): 2.4
